Test results from paper PMC10882719 (Frontiers in Neuroscience, 2024).
Where two headings read alike, the source gives them in different places.

What was measured:
Assay type in all cases: cell-based
[1] = molecular target: T1, 168 GPCRs (Homo sapiens, UniProt P47898); conditions: HTR5A
T1 construct: host or cells: PathHunter cell lines
Experimental: (§1) Studies were performed at Eurofins DiscoverX Corporation (Fremont, CA) using the GPCRmax assay according to the manufacturer’s protocols. […] Activity greater than 30% typically indicates agonist activity and inhibition greater than 50% indicates antagonist activity. This assay uses enzyme fragment complementation with […] as the functional reporter. When a GPCR is activated, […] is recruited and the reporter is detectable. GPCRmax offers a high-throughput screen of 168 GPCRs for agonist or antagonist activity. Briefly, PathHunter cell lines were propagated, seeded into 384-well microplates and incubated at 37°C. […] Microplates were read following signal generation with a PerkinElmer Envision™ instrument for chemiluminescent signal detection. Compound activity was analyzed using CBIS data analysis suite (ChemInnovation, CA) to determine raw values (RLU). For agonist mode assay, percentage activity was calculated using the following formula: % Activity =100% × (mean RLU of test sample - mean RLU of vehicle control) / (mean MAX control ligand - mean RLU of vehicle control). For antagonist mode assay, percentage inhibition was calculated using the following formula: % Inhibition =100% × (1 - (mean RLU of test sample - mean RLU of vehicle control) / (mean RLU of EC80 control - mean RLU of vehicle control)).

[2] = molecular target: T2, 168 GPCRs (Homo sapiens, UniProt P21453)
T2 construct: host or cells: PathHunter cell lines
Experimental: as §1

[3] = molecular target: T3, 168 GPCRs (Homo sapiens, UniProt P51677)
T3 construct: host or cells: PathHunter cell lines
T3 sequence (P51677 1-355): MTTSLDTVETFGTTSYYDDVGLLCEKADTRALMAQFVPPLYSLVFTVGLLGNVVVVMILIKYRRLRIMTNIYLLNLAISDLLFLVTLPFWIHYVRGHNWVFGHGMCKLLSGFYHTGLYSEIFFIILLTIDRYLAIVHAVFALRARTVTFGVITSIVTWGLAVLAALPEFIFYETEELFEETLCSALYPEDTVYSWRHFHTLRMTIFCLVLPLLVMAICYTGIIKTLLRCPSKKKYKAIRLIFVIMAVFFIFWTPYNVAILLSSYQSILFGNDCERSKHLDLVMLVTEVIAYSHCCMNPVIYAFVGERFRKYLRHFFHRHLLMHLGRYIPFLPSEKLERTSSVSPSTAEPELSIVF
Experimental: as §1

[4] = molecular target: T4, 168 GPCRs (Homo sapiens, UniProt P30550); conditions: GRPR
T4 construct: host or cells: PathHunter cell lines
Experimental: as §1

[5] = molecular target: T5, 168 GPCRs (Homo sapiens, UniProt P49019); conditions: GPR109B
T5 construct: host or cells: PathHunter cell lines
Experimental: as §1

[6] = molecular target: T6, 168 GPCRs (Homo sapiens, UniProt Q9GZQ6); conditions: NPFFR1
T6 construct: host or cells: PathHunter cell lines
Experimental: as §1

[7] = molecular target: T7, 168 GPCRs (Homo sapiens, UniProt Q96G91); conditions: P2RY11
T7 construct: host or cells: PathHunter cell lines
T7 sequence (Q96G91 1-374): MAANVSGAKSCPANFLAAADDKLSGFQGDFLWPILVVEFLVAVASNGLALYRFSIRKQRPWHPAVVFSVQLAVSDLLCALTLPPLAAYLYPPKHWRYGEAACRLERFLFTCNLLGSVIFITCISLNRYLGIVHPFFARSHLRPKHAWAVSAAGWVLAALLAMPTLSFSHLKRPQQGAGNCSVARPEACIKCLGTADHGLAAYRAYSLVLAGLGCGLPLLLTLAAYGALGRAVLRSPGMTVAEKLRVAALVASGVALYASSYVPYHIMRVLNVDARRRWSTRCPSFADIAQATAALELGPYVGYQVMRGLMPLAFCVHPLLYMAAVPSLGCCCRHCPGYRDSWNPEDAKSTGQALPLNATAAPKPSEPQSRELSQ
Experimental: as §1

[8] = molecular target: T8, 168 GPCRs (Homo sapiens, UniProt Q9HB89); conditions: NMU1R
T8 construct: host or cells: PathHunter cell lines
T8 sequence (Q9HB89 1-426): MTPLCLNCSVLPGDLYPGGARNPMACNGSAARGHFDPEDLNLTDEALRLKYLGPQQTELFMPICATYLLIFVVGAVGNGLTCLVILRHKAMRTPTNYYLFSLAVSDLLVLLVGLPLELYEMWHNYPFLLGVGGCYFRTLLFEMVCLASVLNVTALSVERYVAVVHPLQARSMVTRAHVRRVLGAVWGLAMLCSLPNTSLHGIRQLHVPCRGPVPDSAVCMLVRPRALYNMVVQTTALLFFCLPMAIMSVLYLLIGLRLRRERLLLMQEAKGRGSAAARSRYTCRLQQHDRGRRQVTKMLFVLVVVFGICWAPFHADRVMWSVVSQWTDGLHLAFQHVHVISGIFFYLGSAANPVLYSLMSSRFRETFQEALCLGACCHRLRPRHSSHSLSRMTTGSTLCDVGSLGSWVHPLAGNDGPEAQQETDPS
Experimental: as §1

[9] = molecular target: T9, 168 GPCRs (Homo sapiens, UniProt P21728)
T9 construct: host or cells: PathHunter cell lines
Experimental: as §1

[10] = molecular target: T10, 168 GPCRs (Homo sapiens, UniProt P16473); conditions: TSHR(L)
T10 construct: host or cells: PathHunter cell lines
Experimental: as §1

[11] = molecular target: T11, 168 GPCRs (Homo sapiens, UniProt P43220); conditions: GLP1R
T11 construct: host or cells: PathHunter cell lines
Experimental: as §1

T6 sequence (Q9GZQ6 whole entry): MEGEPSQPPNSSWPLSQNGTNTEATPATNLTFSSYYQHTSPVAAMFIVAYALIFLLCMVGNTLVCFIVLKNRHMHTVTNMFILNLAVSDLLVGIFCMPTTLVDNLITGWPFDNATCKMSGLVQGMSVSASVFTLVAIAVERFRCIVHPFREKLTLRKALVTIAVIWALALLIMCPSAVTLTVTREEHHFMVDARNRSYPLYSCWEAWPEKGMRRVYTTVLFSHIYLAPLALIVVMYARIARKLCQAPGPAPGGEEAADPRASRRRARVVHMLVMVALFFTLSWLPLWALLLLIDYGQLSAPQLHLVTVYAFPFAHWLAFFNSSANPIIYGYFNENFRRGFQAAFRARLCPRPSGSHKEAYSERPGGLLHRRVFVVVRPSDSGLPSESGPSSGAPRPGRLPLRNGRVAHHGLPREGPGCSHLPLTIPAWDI
T11 sequence (P43220 24-463): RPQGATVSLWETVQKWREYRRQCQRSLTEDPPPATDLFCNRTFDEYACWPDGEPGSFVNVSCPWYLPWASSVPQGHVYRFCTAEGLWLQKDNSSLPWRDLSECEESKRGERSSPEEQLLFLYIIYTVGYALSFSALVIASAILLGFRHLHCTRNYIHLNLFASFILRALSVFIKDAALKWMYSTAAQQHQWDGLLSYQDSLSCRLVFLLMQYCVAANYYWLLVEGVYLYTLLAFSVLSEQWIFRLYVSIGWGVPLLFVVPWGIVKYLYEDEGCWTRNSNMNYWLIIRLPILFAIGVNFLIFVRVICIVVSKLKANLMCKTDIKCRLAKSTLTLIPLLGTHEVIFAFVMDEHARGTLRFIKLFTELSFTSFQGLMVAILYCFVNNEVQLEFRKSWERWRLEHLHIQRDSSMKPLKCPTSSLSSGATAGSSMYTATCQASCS
T1 sequence (P47898 whole entry): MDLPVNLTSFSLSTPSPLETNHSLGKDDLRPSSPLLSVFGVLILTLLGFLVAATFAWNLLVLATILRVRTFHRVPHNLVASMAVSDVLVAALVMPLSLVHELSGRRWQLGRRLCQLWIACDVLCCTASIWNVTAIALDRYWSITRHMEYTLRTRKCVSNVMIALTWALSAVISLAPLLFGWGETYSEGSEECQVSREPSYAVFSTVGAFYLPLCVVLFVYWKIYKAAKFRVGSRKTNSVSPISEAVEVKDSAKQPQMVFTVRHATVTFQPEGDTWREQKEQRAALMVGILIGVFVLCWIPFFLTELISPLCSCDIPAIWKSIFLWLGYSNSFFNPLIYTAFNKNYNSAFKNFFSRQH
T2 sequence (P21453 whole entry): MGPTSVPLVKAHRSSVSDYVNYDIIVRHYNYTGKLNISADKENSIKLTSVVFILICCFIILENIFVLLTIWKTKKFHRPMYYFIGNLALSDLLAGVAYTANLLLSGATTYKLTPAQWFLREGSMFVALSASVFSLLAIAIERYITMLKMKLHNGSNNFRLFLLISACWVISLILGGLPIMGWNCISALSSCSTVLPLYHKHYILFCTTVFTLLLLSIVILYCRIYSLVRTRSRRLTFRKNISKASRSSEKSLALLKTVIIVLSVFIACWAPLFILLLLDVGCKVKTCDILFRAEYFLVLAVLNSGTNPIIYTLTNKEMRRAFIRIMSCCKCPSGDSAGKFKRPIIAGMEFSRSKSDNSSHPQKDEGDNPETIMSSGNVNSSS
T10 sequence (P16473 21-764): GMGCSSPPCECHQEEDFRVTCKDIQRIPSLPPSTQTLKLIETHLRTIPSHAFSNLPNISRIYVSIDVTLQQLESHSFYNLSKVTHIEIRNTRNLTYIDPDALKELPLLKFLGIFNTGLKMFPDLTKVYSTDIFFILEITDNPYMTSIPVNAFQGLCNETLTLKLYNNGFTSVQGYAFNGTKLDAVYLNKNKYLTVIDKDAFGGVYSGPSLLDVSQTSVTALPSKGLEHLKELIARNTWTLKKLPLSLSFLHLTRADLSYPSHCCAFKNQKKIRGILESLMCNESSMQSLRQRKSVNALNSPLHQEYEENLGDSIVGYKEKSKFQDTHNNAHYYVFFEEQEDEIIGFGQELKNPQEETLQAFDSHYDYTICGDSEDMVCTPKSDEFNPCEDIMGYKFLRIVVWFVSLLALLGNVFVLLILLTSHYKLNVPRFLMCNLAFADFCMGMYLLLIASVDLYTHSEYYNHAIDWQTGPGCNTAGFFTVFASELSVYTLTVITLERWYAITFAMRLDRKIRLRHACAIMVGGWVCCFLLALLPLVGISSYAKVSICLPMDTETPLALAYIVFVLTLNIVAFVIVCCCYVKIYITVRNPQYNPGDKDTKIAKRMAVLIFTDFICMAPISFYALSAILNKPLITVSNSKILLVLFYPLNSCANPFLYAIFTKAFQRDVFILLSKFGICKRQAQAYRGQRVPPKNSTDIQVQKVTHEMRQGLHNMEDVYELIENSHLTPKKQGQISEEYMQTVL
T5 sequence (P49019 whole entry): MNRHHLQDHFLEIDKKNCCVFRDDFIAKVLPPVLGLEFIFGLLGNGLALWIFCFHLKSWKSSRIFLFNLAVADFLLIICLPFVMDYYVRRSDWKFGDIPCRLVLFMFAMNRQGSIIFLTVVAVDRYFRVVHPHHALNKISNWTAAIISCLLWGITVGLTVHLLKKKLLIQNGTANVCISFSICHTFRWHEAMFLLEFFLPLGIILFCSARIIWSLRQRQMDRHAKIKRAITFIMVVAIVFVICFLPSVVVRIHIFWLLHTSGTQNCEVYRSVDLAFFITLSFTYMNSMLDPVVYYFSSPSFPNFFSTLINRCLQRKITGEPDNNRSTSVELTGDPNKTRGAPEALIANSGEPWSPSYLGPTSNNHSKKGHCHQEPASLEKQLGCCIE
T9 sequence (P21728 whole entry): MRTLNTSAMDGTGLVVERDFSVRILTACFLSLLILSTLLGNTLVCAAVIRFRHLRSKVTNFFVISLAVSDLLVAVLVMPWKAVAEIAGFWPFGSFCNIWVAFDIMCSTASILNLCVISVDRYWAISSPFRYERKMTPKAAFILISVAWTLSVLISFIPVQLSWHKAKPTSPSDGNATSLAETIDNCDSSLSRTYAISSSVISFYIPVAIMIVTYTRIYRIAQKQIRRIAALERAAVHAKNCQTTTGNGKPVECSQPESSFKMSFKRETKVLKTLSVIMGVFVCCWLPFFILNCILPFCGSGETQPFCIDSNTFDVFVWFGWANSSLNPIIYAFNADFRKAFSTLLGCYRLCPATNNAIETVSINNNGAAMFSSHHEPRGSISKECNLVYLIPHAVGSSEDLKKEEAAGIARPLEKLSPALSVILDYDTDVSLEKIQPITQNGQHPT
T4 sequence (P30550 whole entry): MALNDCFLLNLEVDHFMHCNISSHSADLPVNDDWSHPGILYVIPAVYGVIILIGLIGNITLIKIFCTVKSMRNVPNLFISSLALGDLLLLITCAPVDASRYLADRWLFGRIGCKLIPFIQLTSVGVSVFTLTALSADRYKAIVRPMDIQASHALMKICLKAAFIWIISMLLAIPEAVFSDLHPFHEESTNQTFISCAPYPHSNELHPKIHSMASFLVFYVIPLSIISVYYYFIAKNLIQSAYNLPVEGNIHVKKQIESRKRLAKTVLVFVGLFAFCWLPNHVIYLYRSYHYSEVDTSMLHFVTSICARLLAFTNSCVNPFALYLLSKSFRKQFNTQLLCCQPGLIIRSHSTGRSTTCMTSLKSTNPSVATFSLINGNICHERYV

With `CNC(C)Cc1ccc2c(c1)OCO2` (stereo not drawn) [MDMA, 3,4-Methylenedioxy methamphetamine, reference compound] as the compound, how does the “% Antagonist Activity” value ([1]; 1 uM) read?
The value was -16.4%.

What about the “% Antagonist Activity” value ([1]; 10 uM) of the same compound?
The value was -6.4%.

What about the “% Agonist Activity” value ([2]; EDG1, 1 uM) of the same compound?
Its value is 0%.

And the “% Antagonist Activity” value ([2]; EDG1, 1 uM)?
The value was 3.5%.

And the “% Agonist Activity” value ([2]; EDG1, 10 uM)?
The value was -0.6%.

And the “% Antagonist Activity” value ([2]; EDG1, 10 uM)?
The value was -12.4%.

And the “% Agonist Activity” value ([3]; CCR3, 1 uM)?
Its value is -1.5%.

What about the “% Antagonist Activity” value ([3]; CCR3, 1 uM) of the same compound?
Its value is 1.5%.

And the “% Agonist Activity” value ([3]; CCR3, 10 uM)?
Its value is -1.3%.

And the “% Antagonist Activity” value ([3]; CCR3, 10 uM)?
The value was 9.6%.

And the “% Agonist Activity” value ([4]; 1 uM)?
Its value is -0.3%.

What about the “% Antagonist Activity” value ([4]; 1 uM) of the same compound?
Its value is 1.9%.

And the “% Agonist Activity” value ([4]; 10 uM)?
Its value is -0.6%.

What about the “% Antagonist Activity” value ([4]; 10 uM) of the same compound?
Its value is 1.8%.

What about the “% Agonist Activity” value ([5]; 1 uM) of the same compound?
The value was 0.7%.

What about the “% Antagonist Activity” value ([5]; 1 uM) of the same compound?
Its value is -15.2%.

And the “% Agonist Activity” value ([5]; 10 uM)?
Its value is 1.4%.

What about the “% Antagonist Activity” value ([5]; 10 uM) of the same compound?
Its value is -11.4%.

What about the “% Agonist Activity” value ([6]; Conc 1 uM) of the same compound?
The value was -3.2%.

What about the “% Antagonist Activity” value ([6]; Conc 1 uM) of the same compound?
The value was 17.7%.

And the “% Agonist Activity” value ([6]; Conc 10 uM)?
Its value is -5.5%.

What about the “% Antagonist Activity” value ([6]; Conc 10 uM) of the same compound?
The value was 20.8%.

What about the “% Agonist Activity” value ([7]; Conc 1 uM) of the same compound?
The value was 0.3%.

What about the “% Antagonist Activity” value ([7]; Conc 1 uM) of the same compound?
The value was 17.9%.

And the “% Agonist Activity” value ([7]; Conc 10 uM)?
The value was 0.7%.

And the “% Antagonist Activity” value ([7]; Conc 10 uM)?
Its value is 9%.

What about the “% Agonist Activity” value ([8]; 1 uM) of the same compound?
Its value is 0%.

What about the “% Antagonist Activity” value ([8]; 1 uM) of the same compound?
The value was -3.7%.

And the “% Agonist Activity” value ([8]; 10 uM)?
Its value is -0.1%.

And the “% Antagonist Activity” value ([8]; 10 uM)?
The value was 6.8%.

What about the “% Agonist Activity” value ([9]; DRD1, 1 uM) of the same compound?
Its value is -1%.

What about the “% Antagonist Activity” value ([9]; DRD1, 1 uM) of the same compound?
Its value is -0.5%.

And the “% Agonist Activity” value ([9]; DRD1, 10 uM)?
Its value is -0.8%.

What about the “% Antagonist Activity” value ([9]; DRD1, 10 uM) of the same compound?
Its value is 6%.

And the “% Agonist Activity” value ([10]; Conc 1 uM)?
The value was -0.6%.

What about the “% Antagonist Activity” value ([10]; Conc 1 uM) of the same compound?
The value was -8%.

And the “% Agonist Activity” value ([10]; Conc 10 uM)?
The value was 2.8%.

And the “% Antagonist Activity” value ([10]; Conc 10 uM)?
The value was -5%.

And the “% Agonist Activity” value ([11]; 1 uM)?
The value was -0.4%.

What about the “% Antagonist Activity” value ([11]; 1 uM) of the same compound?
Its value is 9.5%.

And the “% Agonist Activity” value ([11]; 10 uM)?
The value was -0.2%.

What about the “% Antagonist Activity” value ([11]; 10 uM) of the same compound?
Its value is 12.9%.

Which “% Antagonist Activity” value ([1]; 1 uM) does the source give for `CNC(C)C(=O)c1ccc2c(c1)OCO2` (stereo not drawn) [methylone] here?
The value was 9.8%.

What about the “% Antagonist Activity” value ([1]; 10 uM) of the same compound?
Its value is 1.6%.

And the “% Agonist Activity” value ([2]; EDG1, 1 uM)?
Its value is 0.1%.

And the “% Antagonist Activity” value ([2]; EDG1, 1 uM)?
The value was 12.4%.

And the “% Agonist Activity” value ([2]; EDG1, 10 uM)?
Its value is 0.4%.

And the “% Antagonist Activity” value ([2]; EDG1, 10 uM)?
Its value is 10.5%.

And the “% Agonist Activity” value ([3]; CCR3, 1 uM)?
The value was -6.7%.

And the “% Antagonist Activity” value ([3]; CCR3, 1 uM)?
Its value is -11.8%.

And the “% Agonist Activity” value ([3]; CCR3, 10 uM)?
The value was -7.6%.

And the “% Antagonist Activity” value ([3]; CCR3, 10 uM)?
Its value is -4%.

And the “% Agonist Activity” value ([4]; 1 uM)?
Its value is 0%.

What about the “% Antagonist Activity” value ([4]; 1 uM) of the same compound?
The value was 0.7%.

What about the “% Agonist Activity” value ([4]; 10 uM) of the same compound?
The value was -0.1%.

What about the “% Antagonist Activity” value ([4]; 10 uM) of the same compound?
Its value is -1.4%.

What about the “% Agonist Activity” value ([5]; 1 uM) of the same compound?
Its value is 1%.

And the “% Antagonist Activity” value ([5]; 1 uM)?
Its value is -16.5%.

And the “% Agonist Activity” value ([5]; 10 uM)?
Its value is 0.5%.

And the “% Antagonist Activity” value ([5]; 10 uM)?
Its value is -20.2%.

What about the “% Agonist Activity” value ([6]; Conc 1 uM) of the same compound?
The value was -4.6%.

And the “% Antagonist Activity” value ([6]; Conc 1 uM)?
Its value is 32%.

What about the “% Agonist Activity” value ([6]; Conc 10 uM) of the same compound?
Its value is -5.6%.

What about the “% Antagonist Activity” value ([6]; Conc 10 uM) of the same compound?
The value was 27.1%.

And the “% Agonist Activity” value ([7]; Conc 1 uM)?
The value was 0.5%.

And the “% Antagonist Activity” value ([7]; Conc 1 uM)?
Its value is 2.7%.

And the “% Agonist Activity” value ([7]; Conc 10 uM)?
Its value is -0.3%.

What about the “% Antagonist Activity” value ([7]; Conc 10 uM) of the same compound?
Its value is 6.6%.

What about the “% Agonist Activity” value ([8]; 1 uM) of the same compound?
The value was 1.3%.

What about the “% Antagonist Activity” value ([8]; 1 uM) of the same compound?
Its value is -6.7%.

What about the “% Agonist Activity” value ([8]; 10 uM) of the same compound?
The value was 2%.

And the “% Antagonist Activity” value ([8]; 10 uM)?
Its value is -9.3%.

What about the “% Agonist Activity” value ([9]; DRD1, 1 uM) of the same compound?
Its value is -1.6%.

And the “% Antagonist Activity” value ([9]; DRD1, 1 uM)?
Its value is 6%.

What about the “% Agonist Activity” value ([9]; DRD1, 10 uM) of the same compound?
Its value is -1.6%.

And the “% Antagonist Activity” value ([9]; DRD1, 10 uM)?
The value was 7.8%.

What about the “% Agonist Activity” value ([10]; Conc 1 uM) of the same compound?
Its value is -1.2%.

What about the “% Antagonist Activity” value ([10]; Conc 1 uM) of the same compound?
Its value is 6.1%.

And the “% Agonist Activity” value ([10]; Conc 10 uM)?
Its value is 0.7%.

What about the “% Antagonist Activity” value ([10]; Conc 10 uM) of the same compound?
Its value is -6.6%.

And the “% Agonist Activity” value ([11]; 1 uM)?
Its value is -0.3%.

And the “% Antagonist Activity” value ([11]; 1 uM)?
The value was 3.4%.

What about the “% Agonist Activity” value ([11]; 10 uM) of the same compound?
Its value is -0.1%.

And the “% Antagonist Activity” value ([11]; 10 uM)?
Its value is -0.9%.
